The source of these data is US12643867B2, “Compositions and uses thereof” (University of Virginia Patent Foundation, priority 2017, dated 2026).

The structures appear in SMILES notation.

Common to all, as to experiment: SILAC LC-MS ATP acyl phosphate probe competition, native kinases in HEK293T
Format in all cases: binding
Settings in all cases: site Lys2; ATP 1 mM; Ketanserin, Ritanserin 100 μM; RF001 1 mM

Experiment [1] concerns the target T1, CDK1 (Cell division control protein 2 homolog) (Homo sapiens, UniProt P06493).
T1 construct: measured against >50 native kinases quantified in HEK293T soluble proteomes; endogenous in cells; host or cells: HEK293T soluble proteome
Here is the method: (§1) Proteomes were diluted to 2 mg/ml in kinase buffer. The light and heavy proteomes (0.5 mg, 250 μL total reaction volume) were pre-treated with vehicle or compound, respectively (5 μL, DMSO (light) or 50× stock in DMSO (heavy)), mixed gently, and incubated at 25° C. for 30 min. […] After incubation, matched light and heavy proteomes were transferred and mixed in a 1:1 ratio in a two-dram vial containing 4:1:3 MeOH/CHCl3/H2O (2 mL MeOH, 500 AL CHCl3, 1.5 mL H2O) for extraction of proteins to remove excess probe, quickly vortexed, and centrifuged at 1,400×g for 3 min to pellet protein. Organic and aqueous layers were removed using a Pasteur pipette, and the protein pellet was transferred to a screw-top tube in 600 μL MeOH. A second extraction was performed by adding CHCl3 (150 μL) and H2O (600 μL) to each sample, vortexed, and centrifuged at 1,400×g for 3 min to pellet protein. Organic and aqueous layers were removed by pipetting. MeOH added to pellet (600 μL) and pellets were re-suspended by sonication (3×1 sec pulse, 20% amplitude) for a final extraction. Samples were then centrifuged at 17,000×g for 5 min to pellet protein and MeOH was removed by pipetting. The pellets were re-suspended in 10 M urea/25 mM ammonium bicarbonate ([…]), brought to a final volume of 1 mL with 25 mM ammonium bicarbonate, reduced with 10 mM DTT for 15 min at 65° C. allowed to cool, and then alkylated with 40 mM iodoacetamide for 30 min at 25° C. in the dark. To desalt the samples, each was transferred to a two-dram glass vial, and to the vial 4:1:2 MeOH/CHCl3/H2O (2 mL MeOH, 500 AL CHCl3, 1 mL H2O) was added. The vials were vortexed quickly, spun at 1.400×g for 3 min to pellet protein, and aqueous and organic layers were removed using a Pasteur pipette. The resulting protein pellet was transferred to a screw-top tube in 600 μL MeOH, and then CHCl3 (150 μL) and HO (600 μL) were added to extract protein a second time. The samples were vortexed quickly, centrifuged at 1,400×g to pellet protein, and the aqueous and organic layers were removed by pipetting. Resulting protein pellet was suspended in MeOH (600 μL) via sonication (3×1 sec pulse, 20% amplitude), centrifuged at 17,000×g for 5 min to pellet protein, and MeOH removed by pipetting. Protein pellets were then re-suspended in 25 mM ammonium bicarbonate (500 μL) and digested with 7.5 μg Trypsin/Lys-C(Promega, 15 μL, 0.5 μg/μL) for 3 h at 37° C. Avidin-agarose beads (Thermo Scientific Pierce, 100 AL aliquot per sample) were washed three times by adding 10 mL DPBS, centrifuged at 1,400×g for 1 min, and decanting. This wash step was repeated for a total of 3 times. Digested protein samples were mixed with washed avidin beads (100 μL) and brought to a volume of 5.5 mL with DPBS in a 15 mL conical and rotated for 1 h to enrich samples for the covalent desthiobiotin modification. The beads were washed with 25 mM ammonium bicarbonate (3× with 10 mL, centrifuge at 1,400×g for 3 min, decant) and then H2O (3× with 10 mL, centrifuge at 1,400×g for 3 min, decant). Washed beads were then transferred to a low-bind microfuge tube, centrifuged at 1,400×g for 3 min, allowed to rest for 1 min to settle beads, and then excess H2O was removed carefully using a gel-loading pipette tip. To elute peptides, 100 μL of elution buffer (50% acetonitrile, ACN; 0.1% formic acid) was added to each sample and incubated for 3 min. Beads were spun down at 1.400×g for 3 min, allowed to rest for 1 min to settle beads, and then 75 μL of peptide-containing supernatant was removed carefully using a gel-loading pipette tip and transferred to a new low bind centrifuge tube. This step was repeated two more times with 75 μL of elution buffer and all eluent were collected into the same centrifuge tube (˜225 μL total). Peptides were dried on a speed vacuum, resulting peptide samples acidified in 5% (v/v) formic acid, and stored at −80° C. until analysis.
(§2) The peptide samples were analyzed by liquid chromatography-mass spectrometry. […]

The target of experiment [2] is T2, CDK2 (Cell division protein kinase 2) (Homo sapiens, UniProt P24941).
T2 construct: measured against >50 native kinases quantified in HEK293T soluble proteomes; endogenous in cells; host or cells: HEK293T soluble proteome
How it is done: as §1, §2

Experiment [3] addresses T3, M4K3 (Mitogen-activated protein kinase kinase kinase kinase 3) (Homo sapiens, UniProt Q8IVH8).
T3 construct: Native kinases; endogenous in cells; host or cells: HEK293T soluble proteome
T3 sequence (Q8IVH8 1-894): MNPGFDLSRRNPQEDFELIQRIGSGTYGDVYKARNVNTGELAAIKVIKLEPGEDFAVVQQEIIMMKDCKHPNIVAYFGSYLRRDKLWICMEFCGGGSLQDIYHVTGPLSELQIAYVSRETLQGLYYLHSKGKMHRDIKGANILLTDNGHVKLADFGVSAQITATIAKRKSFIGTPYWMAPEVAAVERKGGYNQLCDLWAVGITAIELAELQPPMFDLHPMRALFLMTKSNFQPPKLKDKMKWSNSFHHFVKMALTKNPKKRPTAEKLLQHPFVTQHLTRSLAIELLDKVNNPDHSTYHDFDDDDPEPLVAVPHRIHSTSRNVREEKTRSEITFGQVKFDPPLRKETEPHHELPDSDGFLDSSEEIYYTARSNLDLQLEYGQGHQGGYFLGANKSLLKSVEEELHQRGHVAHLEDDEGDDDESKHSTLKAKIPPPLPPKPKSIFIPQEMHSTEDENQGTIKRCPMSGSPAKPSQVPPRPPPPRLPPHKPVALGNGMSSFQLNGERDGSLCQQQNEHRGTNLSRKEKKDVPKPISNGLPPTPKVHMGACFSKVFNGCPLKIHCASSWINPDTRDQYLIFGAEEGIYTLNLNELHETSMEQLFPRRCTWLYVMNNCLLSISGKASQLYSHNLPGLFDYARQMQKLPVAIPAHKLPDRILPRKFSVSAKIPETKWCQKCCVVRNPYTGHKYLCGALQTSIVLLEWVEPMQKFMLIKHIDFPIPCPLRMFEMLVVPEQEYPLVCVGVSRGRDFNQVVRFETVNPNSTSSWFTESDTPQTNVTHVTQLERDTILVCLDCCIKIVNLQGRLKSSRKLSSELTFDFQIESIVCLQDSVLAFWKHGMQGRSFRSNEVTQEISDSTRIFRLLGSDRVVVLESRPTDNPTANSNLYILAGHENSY
How it is done:
as §1, §2

T1 sequence (P06493 whole entry): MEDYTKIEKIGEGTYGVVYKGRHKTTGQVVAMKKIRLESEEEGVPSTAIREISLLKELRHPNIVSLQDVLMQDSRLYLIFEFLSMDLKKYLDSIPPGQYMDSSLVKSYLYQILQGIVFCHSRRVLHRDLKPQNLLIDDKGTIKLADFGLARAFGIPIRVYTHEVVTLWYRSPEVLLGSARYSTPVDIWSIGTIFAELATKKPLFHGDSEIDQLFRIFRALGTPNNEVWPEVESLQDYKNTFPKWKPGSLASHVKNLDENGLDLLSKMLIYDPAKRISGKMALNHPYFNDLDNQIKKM

Consider `Cc1nc2sccn2c(=O)c1CCN1CCC(=C(c2ccc(F)cc2)c2ccc(F)cc2)CC1` [Ritanserin], for which the “SILAC ratio, CDK1 probe-modified peptide” value in experiment [1] was found to be 2.4. Besides, the “SILAC ratio, CDK2 probe-modified peptide” value in experiment [2] is on record as 2.9. The “SILAC ratio, M4K3 probe-modified peptide” value in experiment [3] is on record as 1.8.
Take `Fc1ccc(C(=C2CCNCC2)c2ccc(F)cc2)cc1` [RF001, 4-(Bis(4-fluorophenyl)methylene) piperidine]: the “SILAC ratio, CDK1 probe-modified peptide” value in experiment [1] amounted to 1.1. For the same compound, the “SILAC ratio, CDK2 probe-modified peptide” value in experiment [2] was 0.7. Besides, the “SILAC ratio, M4K3 probe-modified peptide” value in experiment [3] worked out at 1.1.
With `O=C(c1ccc(F)cc1)C1CCN(CCn2c(=O)[nH]c3ccccc3c2=O)CC1` [Ketanserin], in experiment [1], the “SILAC ratio, CDK1 probe-modified peptide” value is 1.4. Moreover, the “SILAC ratio, CDK2 probe-modified peptide” value in experiment [2] is 1.6. The “SILAC ratio, M4K3 probe-modified peptide” value in experiment [3] is reported as 1.4.
